# Patent US11066395B2, “Dimethylaminoethanol salt of a GLP-1 receptor modulator” (RECEPTOS LLC, priority 2016, dated 2021)
# Where a name gives a salt, the structure may show the parent alone. Read-outs that look alike come from different tables or passages of the source. Marks after values point to notes of the source that are not given here.
# How the values were obtained:
# [1] = counterion base; cited from earlier work
# [2] = Stress testing of dimethylaminoethanol salt (40° C./75% RH and 80° C./ambient, 1 week), XRPD and HPLC; assay type: physicochemical
# Method: To better understand the physical and chemical stability of the dimethylaminoethanol salt, the salt was placed under stressed condition (40° C./75% RH and 80° C./Ambient) for 1 week. The solids were then removed and analyzed via both XRPD and HPLC to determine physical and chemical stability, respectively.
# [3] = Hygroscopicity by DVS/GVS with XRPD post GVS; assay type: physicochemical
# Excerpt: To determine the hygroscopicity of the dimethylaminoethanol salt the sample was submitted for DVS (FIG. 39).
# The thermal event likely corresponds to the melt of the crystalline material.
# [4] = Hydration study: slurry in aqueous solvents containing 10% by volume of water, XRPD; assay type: physicochemical; details: acetone, acetonitrile or methanol/water 90/10 by volume
# Method: To understand the potential of forming hydrates the dimethylaminoethanol salt was slurried in a series of aqueous solvents, containing 10% by volume of water.
# When the solids were analyzed by XRPD post hydration study (FIG. 41), the majority of solids had been rendered amorphous. Only the acetone/water mixture had any signs of crystallinity, which corresponded to the input material. […] The generation of amorphous material could be due to the high affinity of the molecule (RP-101) with solvents and water.
# [5] = pH solubility curve (buffers pH 1-pH 8, deionized water); assay type: physicochemical
# Method: A range of buffers were made up (pH 1-pH 8) to understand the effect of pH on the measured solubility. In each case the pH is measured prior to isolation to ensure most accurate data. […] All solids were characterized by XRPD post solubility determination and shown all to be amorphous (FIG. 44), which is common when a solid is placed into aqueous conditions.
# [6] = Thermodynamic solubility testing in pH 6.8 phosphate buffer; assay type: physicochemical; details: for solubility at 24 h: phosphate buffer, pH 6.8, aqueous buffer, thermodynamic from solid
# Method: 0.5 mL of that buffer is then added to 5-10 mg of each crystalline salt hit. The pH of the resultant slurries are measured after 10 minutes and, if needed, adjusted back to pH 6.8 using the individual buffer component. Samples were stirred at room temperature for 24 hours, filtered, and analyzed for concentration by HPLC.
# [7] = Salt screen: storage of salts at 40° C./75% RH for 7 days, re-analysis by XRPD
# Method: These resultant suspensions were temperature cycled between ambient temperature (22° C.) and 40° C. in 4 hour cycles for 72 hours. Samples were analyzed by XRPD and any remaining solid was isolated by filtration using a centrifuge and tubes with a 0.45 m filter insert. Isolated solids were allowed to dry at ambient condition and analyzed by ^1H NMR.
compound,measurement,setting,value
"CNC[C@H](O)[C@@H](O)[C@H](O)[C@H](O)CO [N-Methylglucamine, (2R,3R,4R,5S)-6-(methylamino)hexane-1,2,3,4,5-pentaol]",LogP,[1],−3.37
"CCC1CCC(C2CC=C(c3cnc(-c4ccc(CC(NC(=O)c5ccc(C(C)(C)C)s5)C(=O)N5CC(C(=O)O)C5)cc4)nc3)CC2)CC1 (centres unmarked) [deanol-RP-101, 2-hydroxy-N,N-dimethylethanaminium 1-(2-(5-(tert-butyl)-thiophene-2-carboxamido)-3-(4-(5-(4′-ethyl-[1,1′-bi(cyclohexan)]-3-en-4-yl)-pyrimidin-2-yl)phenyl)propanoyl)azetidine-3-carboxylate salt]",Crystalline form by XRPD post stability (physical stability),[2]; 40° C./75% RH,same crystalline form was present
same,Crystallinity by XRPD post stability,[2]; 40° C./75% RH,decrease in crystallinity
same,Purity by HPLC post stress (chemical stability),[2]; 40° C./75% RH,97.3%
same,Crystalline form by XRPD post stability (physical stability),[2]; 80° C./ambient,same crystalline form was present
same,Purity by HPLC post stress (chemical stability),[2]; 80° C./ambient,96.8%
same,Hygroscopicity (DVS/GVS),[3],the process was reversible and did not indicate the conversion to a hydrate
same,XRPD post GVS compared to input material,[3],no change seen
same,Hydrate formation (XRPD post hydration study),[4],no obvious hydrate
same,Solubility,[5]; acidic conditions,low
same,Solubility,[5]; basic conditions,rises significantly
same,Solubility,[5]; deionized water,relatively high
CCC1CCC(C2CC=C(c3cnc(-c4ccc(CC(NC(=O)c5ccc(C(C)(C)C)s5)C(=O)N5CC(C(=O)O)C5)cc4)nc3)CC2)CC1 (centres unmarked) [meglumine-RP-101],Solubility,"[6]; aqueous, pH 6.8 phosphate buffer, room temperature, 24 hours, HPLC, listed as Meglumine (DCM)",160 µg/mL
same,solubility at 24 h,"[6]; aqueous, pH 6.8 phosphate buffer, room temperature, 24 hours, HPLC, read-out: Solubility",303 µg/mL
same,solubility at 24 h,"[6]; material obtained from 1,4-dioxane, read-out: Solubility at pH 6.8",303 µg/mL
same,solubility at 24 h,"[6]; material obtained from DCM, read-out: Solubility at pH 6.8",160 µg/mL
same,Stability at 40° C./75% RH (XRPD),"[7]; material obtained from 1,4-dioxane",Only small changes
same,Stability at 40° C./75% RH (XRPD),[7]; material obtained from DCM,decrease in crystallinity
same,Stability at 40° C./75% RH (XRPD),[7]; material obtained from MEK,Only small changes
C[N+](C)(C)CCO.[OH-] [Choline hydroxide],LogP,[1],−3.70
same,pKa 1,[1],11.00
NCCCC[C@H](N)C(=O)O [L-Lysine],LogP,[1],−1.04
same,pKa 3,[1],2.16*
